The text below walks through data of patent US20230263900A1, “DENDRIMER-DRUG CONJUGATE” (priority 2020, published 2023).

The nature of series [1]: Solubility studies. It is filed as physicochemical. The method, then:
The solubility of BHALys[Lys]2[Lys]4[Lys]8[Lys]16[Lys]32[(α-NH-3′ O-Glu-Remdesivir)32(ε-NH-COPEG2000)32] RHa-3 in water was determined to be ≥200 mg/mL (or ≥43.6 mg/mL Remdesivir RHa-1) by adding water (250 μL) to 50.0 mg of BHALys [Lys]2[Lys]4[Lys]8[Lys]16[Lys]32[(α-NH-3′ O-Glu-Remdesivir)32(ε-NH-COPEG2000)32] and swirling briefly. After 2 min, the resulting solution was visually inspected for particulates and found to be a clear solution (see FIG. 2). Solutions shown are 40 mg/ml Remdesivir equivalents (equivalent to 200 mg/ml of conjugate RHa-3).
The solubility of BHALys[Lys]2[Lys]4[Lys]8[Lys]16[Lys]32[(α-NH-6N-TDA-Remdesivir)32(ε-NH-COPEG2000)32] RHa-5, in EtOH:Water (1:9 v/v) was determined to be ≥543 mg/mL (or ≥107 mg/mL Remdesivir RHa-1) by adding water EtOH:Water (1:9 v/v, 400 μL) to 380 mg of RHa-5. The mixture was swirled briefly and left to stand at rt. After 1.5 h the resulting solution (volume recorded=700 μL) was visually inspected for particulates and found to be a clear solution.
The solubility of BHALys[Lys]2[Lys]4[Lys]8[Lys]16[Lys]32[(α-NH-6N-TDA-Remdesivir)32(ε-NH-COPEG1000)32] RHa-17 in EtOH:Water (1:9 v/v) was determined to be ≥354* mg/mL (or ≥85 mg/mL Remdesivir RHa-1) by adding EtOH:Water (1:9 v/v, 958 μL) portionwise to 525 mg of RHa-17, over a period of 1.5 h with intermittent swirling. The resulting solution was visually inspected for particulates and found to be a clear solution.
(*Total volume not recorded. Assumes 1 mg construct contributes to 1 μL of final solution (i.e., total volume of final solution=1483 μL)).

Series [2] in a line: Release of Remdesivir in PBS buffer (Release Method 1). It is filed as physicochemical. The conditions noted are these: PBS buffer with 10% v/v DMSO, pH 7.4, 37° C. The method, then: Release Method 1: An accurately weighed amount of the Remdesivir-dendrimer (10 mg) construct was dissolved in pH 7.4 PBS buffer:DMSO (9:1 v/v) and the volume made up to 20.0 mL in a volumetric flask to give a 0.5 mg/mL stock solution. The stock solution was aliquoted into several 2 mL screw-cap vials, the caps fitted and the vials heated at 37° C. The aliquoted solutions were analyzed at different time points by HPLC (HPLC Method 3). The concentration of Remdesivir RHa-1 was calculated by comparing the area under the peak associated with Remdesivir RHa-1 to a standard curve in MeCN:DMSO (9:1, v/v). The percentage of Remdesivir RHa-1 released is the percentage of available Remdesivir RHa-1 based on the loading of the construct as determined by ^1H NMR analysis (API Loading Method 1).
The extent to which the Remdesivir RHa-1 was released over time in PBS buffer (with 10% v/v DMSO) (pH 7.4) at 37° C. was determined for 5 constructs, RHa-17, RHa-15, RHa-11, RHa-5 and RHa-3 (Release Method 1) over 120 hours.
Trace amounts of other components were also observed (presumed to be degradation products of Remdesivir RHa-1). The area under the resolvable (separated) peaks associated with these degradants was also added to the peak area associated with released Remdesivir RHa-1.
BHALys [Lys]2[Lys]4[Lys]8[Lys]16[Lys]32[(α-NH-6N-TDA-Remdesivir)32(ε-NH-COPEG2000)32] RHa-5 contained 1.77% free Remdesivir RHa-1 at t=0 min. The value of released Remdesivir RHa-1 shown in FIG. 3 has been adjusted to take this into account.

Series [3] can be described thus: Viscosity measurements (Viscosity Method 1). Type of series: physicochemical. The conditions noted are these: 50 mg/mL Remdesivir equivalents in EtOH: Water (1:9 v/v). The method, then:
Viscosities were measured on Anton Paar ViscoQC300 Viscometer using CC-12 cup.
Viscosity Method 1: A reference standard solution (Standard Type: RT500, CAS No. 63148-62-9, Paragon Scientific Ltd) was first recorded and found to be within the range of reported value (at 20° C.: found 556.6 cP, theoretical 551.0 cP; at 25° C.: found 503.3 cP, theoretical 498.6 cP). Accurately weighed quantities of respective conjugates were dissolved in EtOH:Water […] to make a 50 mg/mL Remdesivir equivalent solution (total volume 2.30-2.40 mL) and the viscosity of the solution was recorded at 20° C. and 25° C.
Viscosities of 2 formulations containing either RHa-5 or RHa-17 in EtOH: Water (1:9 v/v) were measured using Viscosity Method 1

Details of series [4]: species or system rats. The conditions noted are these: rat, in vivo. The method, then: The dendrimer BHALys[Lys]2[Lys]4[Lys]8[Lys]16(PEG2000)32 was constituted to 10 mg/ml in PBS and stored at −20° C. until required. The construction of the dendrimer was as described previously (Kaminskas L M, et al Mol Pharm. 2008 May-June; 5(3):449-63).
Rats were intravenously administered 1 ml of dendrimer in sterile saline over 2 mins. […] For the pharmacokinetic evaluation of dendrimer administered to the lungs as an aerosolized dose, rats were cannulated only via the right carotid artery. Rats were administered 1 mg of dendrimer in 100 μl saline via intratracheal insertion of the Penn Century micro spray aerosol device to the lungs of rats under isoflurane anaesthesia. […] Plasma, urine, feces and lungs were analysed for radiolabel via liquid scintillation counting
(n=4-5 rats) and data is normalized to 5 mg/kg dendrimer. […] Data in Figure B represents mean±s.d. (n=4 rats) 7 days after the pulmonary dose.

A short description of series [5]: in vivo. The method, then:
The ability to deliver dendrimer-drug conjugates via the pulmonary route was evaluated.
Male Sprague Dawley (SD) rats (8-9 weeks, 270-320 g) were obtained from Monash Animal Services (VIC, Australia). Female F344 rats (8-10 weeks) were supplied by Animal Resources Centre (Perth, Australia).
Blood samples and urine were then collected for up to 5 days. […] At the completion of the study, bronchoalveolar lavage fluid (BALF), lungs, liver, heart, spleen, kidneys and pancreas were collected from rats for biodistribution analysis. BALF was collected via the intratracheal perfusion of 3×5 ml saline Alveolar macrophages were isolated from BALF via centrifugation at 600×g for 10 mins. […] Plasma, urine, feces, and organs were analysed for radiolabel via liquid scintillation counting. Total doxorubicin in plasma, BALF and lung tissue in pulmonary dosed rats was analysed via a fluorescence HPLC (Kaminskas L M, et al, Nanomedicine. 2012 January; 8(1):103-11).
Data are represented as mean±s.d. (n=3-7).

For series [6] the following is noted: cited from earlier work.
[7] abbreviates: male, Sprague-Dawley, rat, in vivo.
The mark [8] stands for this setting: male, Sprague-Dawley, rat, in vivo, inhaled or intranasal, 0.6 mg.

On to “BHALys[Lys]2[Lys]4[Lys]8[Lys]16[Lys]32[(α-NH-6N-TDA-Remdesivir)32(ε-NH-COPEG1000)32] [RHa-17]”, for which, in series [1] (EtOH:Water (1:9 v/v), conjugate mass, rt), the “Solubility in EtOH:Water (1:9 v/v)” value is recorded as not below 354 mg/mL. Besides, the “Solubility in EtOH:Water (1:9 v/v), as Remdesivir RHa-1” value in series [1] (EtOH:Water (1:9 v/v), expressed as Remdesivir RHa-1) is reported as not below 85 mg/mL. For the same molecule, the “Approx. Time taken for 50% Remdesivir release” value in series [2] was approximately 48 h. For the same molecule, in series [3], the “Viscosity at 20° C.” value is on record as 38.99 cP and the “Viscosity at 25° C.” value is 29.32 cP.

Molecule “BHALys[Lys]2[Lys]4[Lys]8[Lys]16[Lys]32[(α-NH-3′O-Glu-Remdesivir)32(ε-NH-COPEG2000)32] [RHa-3]” registered a Solubility in water in series [1] (water, conjugate mass, visual inspection after 2 min) not below 200 mg/mL. For the same molecule, the “Solubility in water, as Remdesivir RHa-1” value in series [1] (water, expressed as Remdesivir RHa-1) was not below 43.6 mg/mL. Besides, the “Approx. Time taken for 50% Remdesivir release” value in series [2] was more than 120 h.

Take “BHALys[Lys]2[Lys]4[Lys]8[Lys]16(PEG2000)32”: the “Bioavailability after lung delivery” value in series [4] is on record as 2.4±3.3%.

For orientation: Tmax means the time at which the peak concentration occurs. Usually half-life stands for the time needed for the level to fall by half in the phase considered. The AUC is concentration integrated over time. Low readings indicate low exposure, high ones high exposure. Regarding `COc1cccc2c1C(=O)c1c(O)c3c(c(O)c1C2=O)C[C@@](O)(C(=O)CO)C[C@@H]3O[C@H]1C[C@H](N)[C@H](O)[C@H](C)O1` [Doxorubicin, doxorubicin], in series [5] (setting [7]), the “Fabs 0-∞, doxorubicin” value was 83 ± 9% and the “Kel, doxorubicin” value is recorded as 0.132 ± 0.010 ^−h. Moreover, in series [5] (setting [8]), the Tmax is 6 ± 3 min and the half-life is 5 ± 0.4 h. Also, in series [5] (male, Sprague-Dawley, rat, in vivo, iv, 0.75 mg/kg), the AUC stood at 210 ± 40 ng·h/mL. The same molecule registered an AUC in series [5] (male, Sprague-Dawley, rat, plasma, inhaled or intranasal, 0.6 mg) of 170 ± 20 ng·h/mL. Further, the “Kel, doxorubicin” value in series [5] (rats, intravenous, doxorubicin normalized to 0.75 mg/kg) was 0.518 ± 0.312 ^−h.

As usually defined, the Cmax is the peak of the concentration-time curve. In the case of `N#C[C@@]1(c2ccc3c(N)ncnn23)O[C@H](CO)[C@@H](O)[C@H]1O` [GS-441524], the AUC0-24 in series [6] (IV infusion of 200 mg Remdesivir, healthy human subjects) was 7.7 µM·h. Also, the peak concentration (Cmax) in series [6] (after 200 mg dose of Remdesivir) is 152 ng/mL. The Peak plasma concentration result in series [6] (after 30 minutes infusion of Remdesivir) is “about 150 ng/ml”.

As for “BHALys[Lys]2[Lys]4[Lys]8[Lys]16[Lys]32[(α-NH-3′O-DGA-Remdesivir)32(ε-NH-COPEG2000)32] [RHa-11]”, the “Approx. Time taken for 50% Remdesivir release” value in series [2] was approximately 3 h.
